From patent US9682013B2, “Pharmaceutical compositions comprising human antibodies to PCSK9” (SANOFI BIOTECHNOLOGY, priority 2011, dated 2017)

Tests used:
[1] = test system: patients with an elevated low-density lipoprotein cholesterol (LDL-C) (≧100 mg/dL or 2.59 mmol/L); test: Study 1: randomized, double-blind, placebo-controlled 12-week study of antibody 316P on stable atorvastatin; format: in vivo, human; settings: for Cholesterol, Week 12 % change from baseline, Mean / Cholesterol, Week 12 % change from baseline, Median / Cholesterol, Week 12, Mean / Cholesterol, Week 12, Median / Cholesterol, Week 12 change from baseline, Mean / Cholesterol, Week 12 change from baseline, Median / LDL Cholesterol, Week 12—% change from baseline, Mean / LDL Cholesterol, Week 12—% change from baseline, Median / Non-HDL Cholesterol, Week 12 % change from baseline, Mean / Non-HDL Cholesterol, Week 12 % change from baseline, Median / LS mean difference vs. placebo in percent change from baseline in LDL-C at 12 weeks: on stable atorvastatin
Procedure: This was a multicenter, randomized, double-blind, parallel-group, placebo-controlled, 12-week study to assess the efficacy and safety of antibody 316P in patients with an elevated low-density lipoprotein cholesterol (LDL-C) (≧100 mg/dL or 2.59 mmol/L), when treated with atorvastatin (10 mg, 20 mg, or 40 mg) at a stable dose for at least 6 weeks. The randomization was stratified by the dose of atorvastatin received prior to randomization. After the double-blind period patients were followed during an 8-week follow-up period. The primary objective of the study was to evaluate the effect of antibody 316P on LDL-C levels after 12 weeks of treatment in comparison with placebo in patients with LDL-C (≧100 mg/dL or 2.59 mmol/L) on ongoing stable atorvastatin therapy.
The following doses/dose regimens were evaluated: 50 mg, 100 mg and 150 mg every 2 weeks (E2W), 200 mg and 300 mg every 4 weeks (E4W) in comparison with placebo.
Present study comprised a total of 122 patients (20 in placebo, 19 in 50 mg E2W group, 20 in 100 mg E2W group, 20 in 150 mg E2W group, 22 in 200 mg E4W group, and 21 in 300 mg E4W group).
Inclusion criteria: • Patients (patients receiving a lipid lowering treatment other than atorvastatin/or not at stable dose of atorvastatin 10 mg, 20 mg or 40 mg for at least 6 weeks prior to screening period or drug naïve patients) with primary hypercholesterolemia likely to have low-density lipoprotein cholesterol (LDL-C)≧100 mg/dL (≧2.59 mmol/L) at the end of the run-in period on atorvastatin therapy (Week-1). • OR • Patients with primary hypercholesterolemia treated with atorvastatin at stable dose of 10 mg, 20 mg, or 40 mg for at least 6 weeks prior to screening period and likely to have LDL-C≧100 mg/dL (≧2.59 mmol/L) at the screening visit Week-1. […]

[2] = test system: patients with Heterozygous Familial Hypercholesterolemia (HeFH) or other forms of primary hypercholesteremia (nonFH); test: Study 3: randomized, placebo-controlled, multiple ascending dose trial of 316P in HeFH and nonFH; format: in vivo, human; settings: for mean % reduction in LDL-C on day 57: on top of statins, combined FH and nonFH populations
From the text: This is a randomized, double-blind, placebo-controlled, multiple ascending dose, multicenter clinical trial in subjects with primary hypercholesterolemia.
The objective of this study was to determine whether a fully human monoclonal antibody to PCSK9 (316P) is effective and safe as either a primary or adjunctive agent to lower LDL-C in patients with Heterozygous Familial Hypercholesterolemia (HeFH) or other forms of primary hypercholesteremia (nonFH). 61 adults with either documented HeFH (n=21) or nonFH (n=30), on diet plus stable atorvastatin therapy (atorvaRx) or nonFH (n=10) on diet alone enrolled in this clinical trial. Subjects on stable atorvastatin therapy had LDL-C≧2.6 mmol/L and those on diet alone had LDL-C≧3.4 mmol/L. 316P at doses of 50, 100 and 150 mg was administered subcutaneously (sc) at 1, 29 and 43 days. The primary endpoint was the incidence and severity of treatment emergent adverse events (TEAE). The primary efficacy endpoint was percent and absolute change in serum LDL-C from baseline to each visit. Additional endpoints included apolipoprotein (apo) B, total cholesterol, HDL-C, VLDL-C, and the ratio of apoB to apoA1. 109 patients were screened, and 61 patients were randomized (14 placebo, 47 316P) with 100% completing 148+/−7 days of treatment and follow up. Compared to the nonFH cohort, the FH group was younger (mean 40 vs. 52 yrs), had more males (81% vs. 57%) and was on higher doses of atorvastatin (52% on 40 mg vs. 3%). Baseline LDL-C was 3.45, 2.88 and 4.46 mmol/L in the FH, nonFH atorvaRx and nonFH diet only groups, respectively.

hPCSK9 D238 mutated = hPCSK9 D238 mutated (Homo sapiens, UniProt Q8NBP7, D238R); settings: cited from earlier work
hPCSK9 D238 mutated, sequence (Q8NBP7 153-692 D238R): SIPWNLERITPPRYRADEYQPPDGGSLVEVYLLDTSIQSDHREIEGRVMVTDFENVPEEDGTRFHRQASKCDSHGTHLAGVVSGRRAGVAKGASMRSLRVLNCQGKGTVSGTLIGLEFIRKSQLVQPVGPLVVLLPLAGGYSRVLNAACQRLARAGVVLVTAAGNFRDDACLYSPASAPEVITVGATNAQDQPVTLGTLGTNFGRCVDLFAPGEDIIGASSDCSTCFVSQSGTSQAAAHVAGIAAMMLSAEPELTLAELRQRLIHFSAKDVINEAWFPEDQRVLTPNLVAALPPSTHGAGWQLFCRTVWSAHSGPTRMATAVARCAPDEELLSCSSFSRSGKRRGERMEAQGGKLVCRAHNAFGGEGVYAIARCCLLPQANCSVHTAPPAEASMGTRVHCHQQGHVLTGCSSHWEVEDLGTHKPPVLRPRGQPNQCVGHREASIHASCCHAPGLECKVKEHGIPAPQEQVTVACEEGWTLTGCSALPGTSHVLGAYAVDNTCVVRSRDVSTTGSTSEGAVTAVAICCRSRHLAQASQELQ

[3] = 12 weeks, all doses/dose regimens

316P: fully human anti-PCSK9 antibody comprising a HCVR as shown in SEQ ID NO: 90 and LCVR as shown in SEQ ID NO: 92 [Antibody 316P]
Cholesterol, Week 12 % change from baseline, Mean ([1]; 50 mg E2W): −24.21% | Cholesterol, Week 12 % change from baseline, Median ([1]; 50 mg E2W): −23.34% | Cholesterol, Week 12, Mean ([1]; 50 mg E2W): 3.974 mmol/L | Cholesterol, Week 12, Median ([1]; 50 mg E2W): 3.937 mmol/L | Cholesterol, Week 12 change from baseline, Mean ([1]; 50 mg E2W): -1.313 mmol/L | Cholesterol, Week 12 change from baseline, Median ([1]; 50 mg E2W): -1.399 mmol/L | LDL Cholesterol, Week 12—% change from baseline, Mean ([1]; 50 mg E2W): −41.06% | LDL Cholesterol, Week 12—% change from baseline, Median ([1]; 50 mg E2W): −37.04% | Non-HDL Cholesterol, Week 12 % change from baseline, Mean ([1]; 50 mg E2W): −35.23% | Non-HDL Cholesterol, Week 12 % change from baseline, Median ([1]; 50 mg E2W): −36.62% | maintenance of LDL-C decrease observed after the first injection ([1]; 100 mg E2W and 150 mg E2W groups, also throughout the interval period between the injections): maintained throughout the study | Cholesterol, Week 12 % change from baseline, Mean ([1]; 100 mg E2W): −38.97% | Cholesterol, Week 12 % change from baseline, Median ([1]; 100 mg E2W): −40.21% | Cholesterol, Week 12, Mean ([1]; 100 mg E2W): 3.288 mmol/L | Cholesterol, Week 12, Median ([1]; 100 mg E2W): 3.238 mmol/L | Cholesterol, Week 12 change from baseline, Mean ([1]; 100 mg E2W): -2.098 mmol/L | Cholesterol, Week 12 change from baseline, Median ([1]; 100 mg E2W): -2.163 mmol/L | LDL Cholesterol, Week 12—% change from baseline, Mean ([1]; 100 mg E2W): −63.90% | LDL Cholesterol, Week 12—% change from baseline, Median ([1]; 100 mg E2W): −64.28% | LS mean difference vs. placebo in percent change from baseline in LDL-C at 12 weeks ([1]; 100 mg E2W): −58.36% | Non-HDL Cholesterol, Week 12 % change from baseline, Mean ([1]; 100 mg E2W): −54.78% | Non-HDL Cholesterol, Week 12 % change from baseline, Median ([1]; 100 mg E2W): −55.91% | number of patients with LDL-C reduction from baseline >50% at week 12 ([1]; 150 mg E2W group, among 18 patients): 17 | Cholesterol, Week 12 % change from baseline, Mean ([1]; 150 mg E2W): −45.21% | Cholesterol, Week 12 % change from baseline, Median ([1]; 150 mg E2W): −45.03% | Cholesterol, Week 12, Mean ([1]; 150 mg E2W): 2.922 mmol/L | Cholesterol, Week 12, Median ([1]; 150 mg E2W): 2.823 mmol/L | Cholesterol, Week 12 change from baseline, Mean ([1]; 150 mg E2W): -2.466 mmol/L | Cholesterol, Week 12 change from baseline, Median ([1]; 150 mg E2W): -2.331 mmol/L | LDL Cholesterol, Week 12—% change from baseline, Mean ([1]; 150 mg E2W): −72.68% | LDL Cholesterol, Week 12—% change from baseline, Median ([1]; 150 mg E2W): −74.83% | LS mean difference vs. placebo in percent change from baseline in LDL-C at 12 weeks ([1]; 150 mg E2W): −68.78% | Non-HDL Cholesterol, Week 12 % change from baseline, Mean ([1]; 150 mg E2W): −63.71% | Non-HDL Cholesterol, Week 12 % change from baseline, Median ([1]; 150 mg E2W): −65.94% | Cholesterol, Week 12 % change from baseline, Mean ([1]; 200 mg E4W): −29.54% | Cholesterol, Week 12 % change from baseline, Median ([1]; 200 mg E4W): −29.51% | Cholesterol, Week 12, Mean ([1]; 200 mg E4W): 3.709 mmol/L | Cholesterol, Week 12, Median ([1]; 200 mg E4W): 3.587 mmol/L | Cholesterol, Week 12 change from baseline, Mean ([1]; 200 mg E4W): -1.596 mmol/L | Cholesterol, Week 12 change from baseline, Median ([1]; 200 mg E4W): -1.716 mmol/L | LDL Cholesterol, Week 12—% change from baseline, Mean ([1]; 200 mg E4W): −47.23% | LDL Cholesterol, Week 12—% change from baseline, Median ([1]; 200 mg E4W): −49.46% | LS mean difference vs. placebo in percent change from baseline in LDL-C at 12 weeks ([1]; 200 mg E4W): −42.53% | Non-HDL Cholesterol, Week 12 % change from baseline, Mean ([1]; 200 mg E4W): −40.07% | Non-HDL Cholesterol, Week 12 % change from baseline, Median ([1]; 200 mg E4W): −39.91% | decrease in LDL-C during the interval periods ([1]; 200 mg and 300 mg E4W groups): at least −40% | Cholesterol, Week 12 % change from baseline, Mean ([1]; 300 mg E4W): −29.61% | Cholesterol, Week 12 % change from baseline, Median ([1]; 300 mg E4W): −33.48% | Cholesterol, Week 12, Mean ([1]; 300 mg E4W): 3.778 mmol/L | Cholesterol, Week 12, Median ([1]; 300 mg E4W): 3.393 mmol/L | Cholesterol, Week 12 change from baseline, Mean ([1]; 300 mg E4W): -1.638 mmol/L | Cholesterol, Week 12 change from baseline, Median ([1]; 300 mg E4W): -2.020 mmol/L | LDL Cholesterol, Week 12—% change from baseline, Median ([1]; 300 mg E4W): −51.98% | LS mean difference vs. placebo in percent change from baseline in LDL-C at 12 weeks ([1]; 300 mg E4W): −42.26% | Non-HDL Cholesterol, Week 12 % change from baseline, Mean ([1]; 300 mg E4W): −41.17% | Non-HDL Cholesterol, Week 12 % change from baseline, Median ([1]; 300 mg E4W): −45.55% | tolerability ([1]; 12 weeks of treatment, all tested doses/dose regimens): well tolerated | ApoB [1, 3]: decrease | Total-C [1, 3]: decrease | non HDL-C [1, 3]: decrease | HDL-C ([1]; 12 weeks, all groups): trend of increase | percent change from baseline in LDL-C at 12 weeks compared to the placebo group ([1]; all groups): Statistically significant decreases | troponin levels ([1]; all treatment groups): no change | LDL-C mean values over 12 weeks and LOCF (FIG. 6, words) ([1]; all treatment groups except placebo, whole study period): significant and persistent reduction of LDL-C levels | mean % reduction in LDL-C on day 57 ([2]; 50 mg sc at days 1, 29 and 43): 35.6% | mean % reduction in LDL-C on day 57 ([2]; 100 mg sc at days 1, 29 and 43): 50.2% | mean % reduction in LDL-C on day 57 ([2]; 150 mg sc at days 1, 29 and 43): 57.5% | HDL-C ([2]; 50, 100 and 150 mg sc): Favourable changes | apoA1 ([2]; 50, 100 and 150 mg sc): Favourable changes | liver function testing or other laboratory parameters ([2]; 50, 100 and 150 mg sc): No drug-related adverse effects | serious adverse events ([2]; 50, 100 and 150 mg sc): No serious adverse events | tolerability ([2]; 50, 100 and 150 mg sc): generally well-tolerated | response between FH and nonFH or those on or not on statin therapy ([2]; no statistical analysis performed): did not appear to be differences in response | T1/2 decrease (hPCSK9 D238 mutated; D238 mutated vs unmutated): > 30 fold | reduction in binding affinity (hPCSK9 D238 mutated; D238 mutated vs unmutated): > 400 fold | Kd (hPCSK9 D238 mutated; D238 mutated): ~0.41 µM
